# Read-outs that look alike come from different tables or passages of the source.
# Assays:
# Type in all cases: binding, sheep
# Conditions in all cases: Cross-reactants at 100 ng/ml, 1000ng/ml, single level of cross reactants
# [1] = system: Antibody to Immunogen III
# Experimental: (§1) The wells of an enhanced binding 96 well polystyrene microtiter plate were coated with IgG fraction of antiserum raised to Immunogen VI, diluted in 10mM Tris, pH8.5 (125µl/well). The appropriate antibody coating dilution was determined using standard ELISA checkerboard techniques. The plate was incubated overnight at 4°C, washed 4 times over 10 minutes with Tris buffered saline containing Tween 20 (TBST) and tapped dry. Standard solutions of RCS-4 were prepared in TBST at 0, 0.3125, 0.625, 1.25, 2.5, 5, 10 and 20ng/ml, and 50µl of each was added to the appropriate wells (see figure 1). 75µl of conjugate (appropriate hapten-HRP) diluted in Tris buffer (pH 7.2) containing EDTA, D-mannitol, sucrose, thimerosal and BSA, was added to each of the wells. The appropriate dilution of conjugate was also determined using standard ELISA checkerboard techniques. The plate was incubated at 25°C for 1 hour. Excess unbound conjugate was removed by washing 6 times over a 10 minute period with TBST. 125µl oftetramethylbenzidine (TMB) substrate solution was added to each well of the plate that was then incubated for 20 minutes in the dark at room temperature. The reaction was terminated by addition of 125µl 0.2M H2SO4 to each well. The absorbance was then measured at 450nm using a microtiter plate reader. The data are inputted to a computer program called 'KC Junior'. It is a 4 parameter fit curve and allow the calculatation of concentrations between the standard runs. This program is used to calculate the IC50s by dividing the 0ng/ml OD value by 2 and obtaining the concentration value from the curve for this OD.
# In a similar manner to that described above, the wells of a 96-well microtiter plate were coated with the IgG fraction of the antiserum raised to Immunogens I, II or III. Standard solutions (JWH-250 for Immunogen III) were applied at 0, 0.625, 1.25, 2.5, 5, 10, 20 and 40ng/ml and conjugate was employed as detection reagent.
# (§2) The data set our in Tables 3 and 4 are generated using antibodies raised against the indicated Immunogens in a competitive binding assay with the indicated tracers, using the indicated standards: Table 2
# (§3) In order to determine the specificity of the competitive ELISAs, standard solutions of a range of structurally similar synthetic cannabinoids and their metabolites were prepared in TBST. Using the calibration curves generated and employing a single level of cross reactants, these were used to determine the cross-reactivity of each immunoassay with these substances. Table 4: Cross reactivity of the competitive ELISAs for synthetic cannabinoids and their metabolites
# Antibody to Immunogen V = system: Antibody to Immunogen V
# Experimental: as §1
# In a similar manner to that described above, the wells of a 96-well microtiter plate were coated with the IgG fraction of the antiserum raised to Immunogens IV, V, VII or VIII. Standard solutions (RCS-8 for Immunogen V) were prepared in TBST at 0, 1.25, 2.5, 5, 10, 20, 40 and 80ng/ml and conjugate was employed as detection reagent.
# as §2, §3
# Antibody to Immunogen VI = system: Antibody to Immunogen VI
# Experimental: as §1, §2, §3
# [2] = listed as JWH-164 (JWH-081 7-methoxynaphthyl isomer)
SMILES,%B/B0 [1] [%],%B/B0 (Antibody to Immunogen V) [%],%B/B0 (Antibody to Immunogen VI) [%],"%B/B0 [1, 2] [%]",%B/B0 (Antibody to Immunogen V; [2]) [%],%B/B0 (Antibody to Immunogen VI; [2]) [%]
CCCCCn1cc(C(=O)c2c(C)ccc3ccccc23)c2ccccc21 [JWH 122 2-methylnaphthyl isomer],80.25,83.38,90.59,–,–,–
CCCCCn1cc(C(=O)c2cccc3cc(C)ccc23)c2ccccc21 [JWH 122 6-methylnaphthyl isomer],73.75,77.08,84.77,–,–,–
CCCCCn1cc(C(=O)c2cccc3ccc(C)cc23)c2ccccc21 [JWH 122 7-methylnaphthyl isomer],71.72,78.80,86.92,–,–,–
CCCCCn1cc(C(=O)Cc2cccc(Cl)c2)c2ccccc21 [JWH 203 3-chloro isomer (JWH-237)],22.69,27.22,72.53,–,–,–
CCCCCn1cc(C(=O)Cc2ccccc2OC)c2cc(O)ccc21 [JWH 250 5-hydroxyindole metabolite],65.83,37.39,91.28,–,–,–
COc1ccccc1CC(=O)c1cn(CCCCCC(=O)O)c2ccccc12 [JWH 250 N-(5-carboxypentyl) metabo lite],89.61,8.60,85.31,–,–,–
COc1ccccc1CC(=O)c1cn(CCCCCO)c2ccccc12 [JWH 250 N-(5-hydroxypentyl) metabo lite],48.72,6.88,78.58,–,–,–
CCCCCn1cc(C(=O)Cc2cccc(C)c2)c2ccccc21 [JWH 251 3-methylphenyl isomer],21.39,26.65,73.53,–,–,–
CCCCCn1c(C)c(C(=O)c2cccc3ccccc23)c2ccccc21 [JWH-007],81.87,75.22,81.74,–,–,–
CCCCCC(C)n1c(C)c(C(=O)c2cccc3ccccc23)c2ccccc21 (stereo not drawn) [JWH-011],93.19,83.73,88.22,–,–,–
CCCn1c(C)c(C(=O)c2cccc3ccccc23)c2ccccc21 [JWH-015],93.97,73.42,77.06,–,–,–
CCCCn1c(C)c(C(=O)c2cccc3ccccc23)c2ccccc21 [JWH-016],82.93,69.38,80.10,–,–,–
CCCCCn1cc(C(=O)c2cccc3ccccc23)c2ccc(OC)cc21 [JWH-018 6-methoxyindole analogue],85.67,73.60,86.92,–,–,–
"CC(C)(C)Cn1cc(C(=O)c2cccc3ccccc23)c2ccccc21 [JWH-018 N-(2,2-dimethylpropyl) isomer]",95.58,67.14,78.92,–,–,–
O=C(c1cccc2ccccc12)c1cn(CCCCCO)c2ccccc12 [JWH-018 N-(5-hydroxypentyl) metabo lite],89.74,70.25,61.67,–,–,–
O=C(O)CCCCn1cc(C(=O)c2cccc3ccccc23)c2ccccc21 [JWH-018 N-pentanoic acid metabolite],100.98,72.42,65.90,–,–,–
CCCCCn1cc(C(=O)c2cccc3ccccc23)c2ccccc21 [JWH-018],78.39,78.01,82.47,–,–,–
CCCCCCn1cc(C(=O)c2cccc3ccccc23)c2ccccc21 [JWH-019],88.06,70.25,78.02,–,–,–
CCCCCCCn1cc(C(=O)c2cccc3ccccc23)c2ccccc21 [JWH-020],93.85,71.43,82.41,–,–,–
C=CCCCn1cc(C(=O)c2cccc3ccccc23)c2ccccc21 [JWH-022],76.82,61.86,75.42,–,–,–
CCCCCn1ccc(C(=O)c2cccc3ccccc23)c1 [JWH-030],95.34,77.27,86.70,–,–,–

SMILES,%B/B0 [1] [%],%B/B0 (Antibody to Immunogen V) [%],%B/B0 (Antibody to Immunogen VI) [%],"%B/B0 [1, 2] [%]",%B/B0 (Antibody to Immunogen V; [2]) [%],%B/B0 (Antibody to Immunogen VI; [2]) [%]
CCCCn1cc(C(=O)c2ccc(C)c3ccccc23)c2ccccc21 [JWH-073 4-methylnaphthyl analogue],78.03,65.84,70.97,–,–,–
CC(O)CCn1cc(C(=O)c2cccc3ccccc23)c2ccccc21 (stereo not drawn) [JWH-073 N-(3-hydroxybutyl) metabolite],94.05,63.79,72.55,–,–,–
O=C(c1cccc2ccccc12)c1cn(CCCCO)c2ccccc12 [JWH-073 N-(4-hydroxybutyl) metabolite],87.63,63.73,70.57,–,–,–
O=C(O)CCCn1cc(C(=O)c2cccc3ccccc23)c2ccccc21 [JWH-073 N-butanoic acid metabolite],97.45,70.75,76.27,–,–,–
CCCCn1cc(C(=O)c2cccc3ccccc23)c2ccccc21 [JWH-073],81.25,66.65,74.80,–,–,–
CCCCCn1cc(C(=O)c2c(OC)ccc3ccccc23)c2ccccc21 [JWH-081 2-methoxynaphthyl isomer or (JWH-267)],85.59,70.37,86.87,–,–,–
CCCCCn1cc(C(=O)c2cccc3c(OC)cccc23)c2ccccc21 [JWH-081 5-methoxynaphthyl isomer],76.35,90.40,77.74,–,–,–
CCCCCn1cc(C(=O)c2cccc3ccc(OC)cc23)c2ccccc21 [JWH-081 7-methoxynaphthyl isomer (JWH-164)],75.18,87.25,92.27,72.63,82.81,89.29
COc1ccc(C(=O)c2cn(CCCCCO)c3ccccc23)c2ccccc12 [JWH-081 N-(5-hydroxypentyl) metabolite],76.44,72.78,69.47,–,–,–
CCCCCn1c(C)c(C(=O)c2ccc(OC)c3ccccc23)c2ccccc21 [JWH-098],74.71,81.09,78.96,–,–,–
Cc1ccc(C(=O)c2cn(CCCCCO)c3ccccc23)c2ccccc12 [JWH-122 N-(5-hydroxypentyl) metabo lite],81.72,68.77,71.84,–,–,–
CCCCCn1cc(C(=O)c2ccc(C)c3ccccc23)c2ccccc21 [JWH-122],69.90,69.63,75.29,–,–,–
CCCC(C)(C)c1ccc2c(c1)OC(C)(C)[C@@H]1CC=C(C)C[C@@H]21 [JWH-133],97.40,90.40,93.73,–,–,–
CCCCCn1cc(C(=O)c2ccc(CCC)c3ccccc23)c2ccccc21 [JWH-182],76.14,82.38,85.69,–,–,–
O=C(c1ccc2ccccc2c1)c1cn(CCN2CCOCC2)c2ccccc12 [JWH-200 2'-naphthyl isomer],99.13,75.36,20.66,–,–,–
O=C(c1cccc2ccccc12)c1cn(CCN2CCOCC2)c2cccc(O)c12 [JWH-200 4-hydroxyindole metabolite],95.93,74.79,90.44,–,–,–
O=C(c1cccc2ccccc12)c1cn(CCN2CCOCC2)c2ccc(O)cc12 [JWH-200 5-hydroxyindole metabolite],96.49,82.38,93.65,–,–,–
O=C(c1cccc2ccccc12)c1cn(CCN2CCOCC2)c2cc(O)ccc12 [JWH-200 6-hydroxyindole metabolite],95.45,69.91,88.68,–,–,–
CCCCCn1cc(C(=O)Cc2ccc(OC)cc2)c2ccccc21 [JWH-201],27.93,68.62,69.32,–,–,–
CCCCCn1cc(C(=O)Cc2ccccc2Cl)c2ccccc21 [JWH-203],18.15,15.33,83.09,–,–,–
